Reference: PMC10377034, “Syntheses of 25-Adamantyl-25-alkyl-2-methylidene-1α,25-dihydroxyvitamin D3 Derivatives with Structure–Function Studies of Antagonistic and Agonistic Active Vitamin D Analogs” (Biomolecules, 2023)
pEC50, pIC50: −log10 of the molar value. Like-named read-outs stand apart in the source and are kept apart here.

Tests used:
[1] = tested on: CYP24A1 expression in MG63 cells; experiment: CYP24A1 expression (RT-qPCR) in MG63 cells; details: MG63 bone cells, 100 nM, 24 h
Protocol: (§1) HEK293 human kidney cells (RIKEN Cell Bank, Tsukuba, Japan) were cultured in Dulbecco’s modified Eagle’s medium (DMEM) (Fujifilm Wako Pure Chemical Corporation, Tokyo, Japan) containing 5% fetal bovine serum (FBS), 100 U/mL penicillin, and 0.1 mg/mL streptomycin (Nacalai Tesque, Kyoto, Japan). SW480 human colon carcinoma cells (American Type Culture Collection, Manassas, VA) and HaCaT immortalized keratinocyte cells (kindly provided by Dr. Tadashi Terui, Department of Dermatology, Nihon University School of Medicine) were cultured in DMEM containing 10% FBS, 100 U/mL penicillin, and 0.1 mg/mL streptomycin. MG63 human osteosarcoma cells (RIKEN Cell Bank) and lung-derived H292 cells (American Type Culture Collection) were cultured in minimum essential medium containing 10% FBS, 100 U/mL penicillin, and 0.1 mg/mL streptomycin. […] All cells were cultured at 37 °C in a humidified atmosphere containing 5% CO2.
(§2) For gene expression analysis, 1 × 10^4 cells per well were plated in a 24-well plate. After 24 h, the cells were treated with an ethanol control or 100 nM of each test compound for 24 h. […] Real-time PCR was performed on the ABI PRISM 7000 sequence detection system (Thermo Fisher Scientific, Waltham, MA, USA) using Power SYBR Green PCR master mix (Thermo Fisher Scientific).

[2] = molecular target: T1, hVDR (Homo sapiens, UniProt P11473); experiment: VDR transactivation luciferase reporter assay in HEK293 cells (SPP×3-tk-LUC); assay type: cell-based
T1 construct: expressed in transfected cells; host or cells: HEK293
T1 sequence (P11473 1-427): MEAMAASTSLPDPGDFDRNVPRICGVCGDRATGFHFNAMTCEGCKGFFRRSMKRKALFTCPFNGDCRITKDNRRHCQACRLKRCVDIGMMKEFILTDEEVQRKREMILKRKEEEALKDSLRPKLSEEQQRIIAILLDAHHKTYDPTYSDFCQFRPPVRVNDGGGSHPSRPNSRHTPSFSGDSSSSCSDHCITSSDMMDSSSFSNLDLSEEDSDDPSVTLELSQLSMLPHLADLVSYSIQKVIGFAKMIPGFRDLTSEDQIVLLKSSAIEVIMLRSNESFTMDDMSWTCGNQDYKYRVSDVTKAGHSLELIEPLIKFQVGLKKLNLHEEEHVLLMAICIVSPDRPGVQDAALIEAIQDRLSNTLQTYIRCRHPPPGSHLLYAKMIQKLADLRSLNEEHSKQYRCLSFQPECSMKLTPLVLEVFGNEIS
Protocol: The transcriptional activity of the 25-alkylvitamin D analogs on the VDR was evaluated via a luciferase reporter assay in HEK293 human kidney cells transfected with an hVDR expression vector and a luciferase reporter with mouse osteopontin vitamin D response elements (VDREs, SPP×3-tk-LUC).
Transfections of 50 ng of TK-Spp × 3-LUC reporter plasmid, 10 ng of pCMX-β-galactosidase, and 15 ng of pCMX-VDR for each well of a 96-well plate were performed in HEK293 cells using the calcium phosphate coprecipitation method, as described previously. The mammalian two-hybrid assay for cofactor interaction with VDR used 50 ng of TK-MH100(UAS) × 3- LUC reporter plasmid, 10 ng of pCMX-β-galactosidase, 15 ng of pCMX-GAL4-RXRα, pCMX-GAL4-SRC1, or pCMX-GAL4-NCoR, and 15 ng of pCMX-VP16-VDR for each well of a 96-well plate. Luciferase and β-galactosidase activities were measured with a luminometer and a microplate reader (Molecular Devices, Sun Jose, CA, USA), respectively. Luciferase values were normalized to the internal β-galactosidase control.
HEK293 cells were co-transfected with TK-Spp × 3-LUC reporter plasmid and pCMX−VDR, and 8 h after transfection the cells were treated with several concentrations of each compound. After 24 h, the cells were harvested for assaying luciferase and β-galactosidase activity using a luminometer (Molecular Devices, Sunnyvale, CA, USA).

[3] = molecular target: T2, recombinant hVDR-LBD (Homo sapiens, UniProt P11473); experiment: biochemical
T2 sequence (P11473 140-427): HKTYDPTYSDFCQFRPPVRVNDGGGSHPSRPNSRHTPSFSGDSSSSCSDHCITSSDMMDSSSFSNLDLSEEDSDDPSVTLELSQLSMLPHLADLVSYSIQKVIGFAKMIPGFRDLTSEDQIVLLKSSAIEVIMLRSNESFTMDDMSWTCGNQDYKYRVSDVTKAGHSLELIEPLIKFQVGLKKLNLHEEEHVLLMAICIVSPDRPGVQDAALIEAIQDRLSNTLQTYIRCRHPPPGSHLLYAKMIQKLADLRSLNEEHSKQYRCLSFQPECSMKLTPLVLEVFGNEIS
Protocol: (§3) The pGEX-hVDR and pGEX were expressed for a GST-VDR fusion protein and a control GST protein, respectively, in Escherichia coli BL21 (Merck, Darmstadt, Germany). The bacteria were lysed by sonication in a sonication buffer (50 mM Tris-HCl, pH 8.0, 50 mM NaCl, 1 mM EDTA, and 1 mM DTT). The supernatant proteins (1 μg) were diluted in a binding buffer (25 mM Tris, pH 7.5, 100 mM KCl, 25 mM DTT, 4 mM CHAPS, pH 7.5) containing bovine serum albumin (100 μg/mL). A solution containing each test compound in 15 μL of EtOH was added to 570 μL of the GST protein solution in each tube. After being vortexed 2–3 times, the mixture was incubated for 30 min at room temperature. […] After being vortexed 2–3 times, the whole mixture was allowed to stand at 4 °C for 20 h, and 400 μL of dextran-coated charcoal solution (Sigma) was added to remove free ligands.
(§4) All values represent the means, and error bars are the standard deviations derived from triplicate assays.

[4] = tested on: CYP24A1 expression in SW480 cells; experiment: CYP24A1 expression (RT-qPCR) in SW480 cells; details: SW480 intestine cells, 100 nM, 24 h
Protocol: as §1, §2

[5] = molecular target: T3, VDR with NCoR (Homo sapiens, UniProt P11473); experiment: Mammalian two-hybrid assay, dissociation of NCoR from the VDR
T3 sequence (P11473 1-427): T1 sequence (P11473 1-427)
Protocol: (§5) We used the expression plasmids pCMX-VDR, pCMX-VP16- VDR, pCMX-GAL4-RXRα, pCMX-GAL4-SRC-1, and pCMX-GAL4- N-CoR, as reported previously [43]. […] We used luciferase reporters: VDR-responsive Sppx3-tk-LUC and GAL4-responsive MH100(UAS) × 4-tk-LUC reporters [43].
(§6) Transfections of 50 ng of TK-Spp × 3-LUC reporter plasmid, 10 ng of pCMX-β-galactosidase, and 15 ng of pCMX-VDR for each well of a 96-well plate were performed in HEK293 cells using the calcium phosphate coprecipitation method, as described previously [43]. The mammalian two-hybrid assay for cofactor interaction with VDR used 50 ng of TK-MH100(UAS) × 3- LUC reporter plasmid, 10 ng of pCMX-β-galactosidase, 15 ng of pCMX-GAL4-RXRα, pCMX-GAL4-SRC1, or pCMX-GAL4-NCoR, and 15 ng of pCMX-VP16-VDR for each well of a 96-well plate. Luciferase and β-galactosidase activities were measured with a luminometer and a microplate reader (Molecular Devices, Sun Jose, CA, USA), respectively. Luciferase values were normalized to the internal β-galactosidase control.
(§7) (B) Effects on the interactions between the VDR and SRC-1. HEK293 cells were co-transfected with CMX-GAL4-SRC-1, CMX-VP16-VDR, and MH100 (UAS) × 4-tk-LUC and were treated with each compound over a range of concentrations. (C) Effects on interactions of the VDR with NCoR-1. HEK293 cells were co-transfected with CMX-GAL4-N-CoR in combination with CMX-VP16-VDR and MH100 (UAS) × 4-tk-LUC and were treated with each compound over a range of concentrations.

[6] = tested on: CYP24A1 expression in HEK293 cells; experiment: CYP24A1 expression (RT-qPCR) in HEK293 cells; details: HEK293 kidney cells, 100 nM, 24 h
Protocol: as §1, §2

[7] = molecular target: T2, recombinant hVDR-LBD; details: relative to 1,25(OH)2D3
Protocol: as §3, §4

[8] = molecular target: T4, VDR with SRC-1 (Homo sapiens, UniProt P11473); experiment: Mammalian two-hybrid assay, VDR binding to SRC-1
T4 sequence (P11473 1-427): T1 sequence (P11473 1-427)
T4 sequence (Q15788 595-771 partner limits assumed): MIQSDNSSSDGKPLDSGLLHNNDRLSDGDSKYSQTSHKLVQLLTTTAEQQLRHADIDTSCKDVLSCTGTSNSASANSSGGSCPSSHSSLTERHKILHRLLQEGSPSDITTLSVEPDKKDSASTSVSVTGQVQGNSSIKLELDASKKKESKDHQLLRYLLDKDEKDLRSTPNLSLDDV
Protocol: as §5, §6, §7

[9] = tested on: CYP24A1 expression in H292 cells; experiment: CYP24A1 expression (RT-qPCR) in H292 cells; details: H292 lung cells, 100 nM, 24 h
Protocol: as §1, §2

[10] = tested on: human dedifferentiated fat (DFAT) cells; experiment: Osteogenic differentiation assay: ALP activity in human DFAT cells; assay type: cell-based; details: osteogenic medium, 100 nM, 7 days, natural hormone 1 = 100%
Protocol: Mature adipocytes from the adipose tissue of mammals such as humans and rodents can be dedifferentiated into pluripotent cells using ceiling culture. Dedifferentiated fat (DFAT) cells have potential applications in both regenerative medicine and injury healing, as well as mesenchymal stem cells, embryonic stem cells, and induced pluripotent stem cells. The osteogenic activity of vitamin D derivatives was assessed based on alkaline phosphatase (ALP) activity.
Samples of human subcutaneous adipose tissue were obtained from patients who underwent surgery in the Department of Pediatric Surgery at Nihon University Itabashi Hospital (Tokyo, Japan). The patients gave their written informed consent, and the Ethics Committee of Nihon University School of Medicine approved this study. We prepared dedifferentiated fat (DFAT) cells using the ceiling culture method, as described previously. Briefly, the adipose tissue (approximately 1 g) was cut into small pieces and digested with a 0.1% type I collagenase solution (Koken Co., Ltd., Tokyo, Japan). […] The cells that adhered to the upper surface of the flasks were cultured for conversion to dedifferentiated fat cells. […] Cells at passages 2–4 were used for differentiation experiments.
Cells were grown to confluency in 24-well plates and incubated for a week in DMEM containing 10% FBS, 100 nM dexamethasone (Merk), 10 mM β-glycerophosphate (Merk), and […] L-ascorbic acid-2-phosphate (Merk), with 100 nM of each compound. The induction medium was replaced on day 4. The alkaline phosphatase (ALP) activity in the cell lysates was determined on day 7 with a lab assay ALP kit (Fujifilm wako). The total protein content was determined with the BCA protein assay kit (Thermo Fisher Scientific). ALP levels were normalized to the total protein content.

- Transcriptional activity efficacy ([2]; 1,25(OH)2D3 = 100%): 95%
- pEC50 ([2]; read-out: Transcriptional activity EC50): 9.21
- Emax ([2]; this study, read-out: Transcriptional Activity % Efficacy of That of 1 (converted)): 95%
- pEC50 ([2]; this study, read-out: Transcriptional Activity EC50): 9.22
- pIC50 [3]: 8.80
- pIC50 [5]: 9.40
- VDR affinity, % of that of 1,25(OH)2D3 [7]: 23%
- pEC50 [8]: 8.62
SMILES: C=C1[C@H](O)CC(=C/C=C2\CCC[C@]3(C)[C@@H]([C@H](C)CC#C[C@](O)(CCCC)C45CC6CC(CC(C6)C4)C5)CC[C@@H]23)C[C@H]1O [ADKM6, (25S)-25-(1-Adamantyl)-1α,25-dihydroxy-2-methylidene-26-propyl-23-yne-19,27-dinorvitamin D3]
- CYP24A1 expression relative to natural hormone 1 [1]: 54.2%
- CYP24A1 expression relative to natural hormone 1 [4]: 72.9%
- CYP24A1 expression relative to natural hormone 1 [6]: 61.4%
- CYP24A1 expression relative to natural hormone 1 [9]: 87.9%
- ALP activity [10]: 62.4%
